Laboratory results reported in EP0203559A1, “Penicillin derivative containing naphthyridine” (AUSONIA FARMACEUTICI S.r.l., priority 1985, dated 1986).
≈ marks a conversion by molar mass, not a printed value.

How the values were obtained:
Proteus mirabilis = test: Minimal inhibitory concentrations (MIC) against amoxicillin resistant bacteria (Table 1); type: cell-based; details: 3 strains
Citrob. freundii = test: In vitro antibacterial activity (MIC), compound I versus 1:1 combination with amoxicillin (Table 3); type: cell-based; details: Citrobacter freundii, 2 strains, average value, compound I alone
E. coli [1] = test: as above; type: cell-based; details: Escherichia coli, 2 strains, average value, compound I alone
Staph. aureus CH1 = test: Minimal inhibitory concentrations (MIC) against amoxicillin resistant bacteria (Table 1); type: cell-based; details: Staphylococcus aureus, Staph. aureus CH1, 1 strain
[2] = test system: tryptic enzymes (trypsin, pepsin, etc.); test: Stability to tryptic enzymes; type: in vitro ADME
Staph. albus [3] = test: In vitro antibacterial activity (MIC), compound I versus 1:1 combination with amoxicillin (Table 3); type: cell-based; details: 1 strain, compound I alone
Pseudomonas aeruginosa = test: as above; type: cell-based; details: 5 strains, average value, compound I alone
E. coli [4] = test: Minimal inhibitory concentrations (MIC) against amoxicillin resistant bacteria (Table 1); type: cell-based; details: Escherichia coli, 6 strains
Serratia marcescens [5] = test: In vitro antibacterial activity (MIC), compound I versus 1:1 combination with amoxicillin (Table 3); type: cell-based; details: 2 strains, average value, compound I alone
Staph. aureus coag. pos. = test: Minimal inhibitory concentrations (MIC) against amoxicillin resistant bacteria (Table 1); type: cell-based; details: Staphylococcus aureus, 4 strains
Enterob. cloacee = test: In vitro antibacterial activity (MIC), compound I versus 1:1 combination with amoxicillin (Table 3); type: cell-based; details: 2 strains, average value, compound I alone
B-lactamases = test: Stability to B-lactamases; type: in vitro ADME
[6] = test system: B-lactamases from both Gram-positive and Gram-negative bacteria; test: Inhibitory activity against B-lactamases; type: biochemical; details: dosage of 100 δ
Protocol: (§1) In order to further evaluate its therapeutic potentiality, compound I was tested for any inhibitory activity against B-lactamases.

Proteus rettgeri = test: In vitro antibacterial activity (MIC), compound I versus 1:1 combination with amoxicillin (Table 3); type: cell-based; details: Providencia rettgeri, 1 strain, compound I alone
Serratia marcescens [7] = test: Minimal inhibitory concentrations (MIC) against amoxicillin resistant bacteria (Table 1); type: cell-based; details: 2 strains
Staph. albus [8] = test: as above; type: cell-based; details: 1 strain
[9] = test system: ß-Lactamase isolated from: B. cereus; test: Inhibition of hydrolysis rates of ß-lactamases; type: biochemical
Protocol: as §1

[10] = test system: ß-Lactamase isolated from: E. coli; test: Inhibition of hydrolysis rates of ß-lactamases; type: biochemical
Protocol: as §1

Staph. aureus = test: In vitro antibacterial activity (MIC), compound I versus 1:1 combination with amoxicillin (Table 3); type: cell-based; details: Staphylococcus aureus, 8 strains, average value, compound I alone
Pseudomas aeruginosa = test: Minimal inhibitory concentrations (MIC) against amoxicillin resistant bacteria (Table 1); type: cell-based; details: 5 strains
Salmonella enteriditis = test: In vitro antibacterial activity (MIC), compound I versus 1:1 combination with amoxicillin (Table 3); type: cell-based; details: 2 strains, average value, compound I alone
[11] = test system: UR10(R446)xZM46 (plasmid R446, Inc M); test: Inhibition of plasmid transfer by conjugation; type: cell-based, E. coli; details: Escherichia coli
Text: (§2) Another advantageous feature of compound I resides in its ability to inhibit the transfer of bacterial plasmids by conjugation, said ability being shared by other compounds of quinoline structure and being important since it interferes with transmission of bacterial resistance.
(§3) Phenotype symbols according Novick et al. (1976) were used.
(§4) The following antibiotics were used: streptomycin (Sm), tetracycline (Tc), ampicillin (Ap), kanamycin (Km) and rifampicin (Rif). Compound I in 1 and 10 mcg/ml concentrations was used in the transfer mixtures. • - Microorganisms were grown in Nutrient Broth (B.B.L.), NB, or in Nutrient Agar or Mc Conkey Agar (B.B.L.). Appropriate antibiotic concentrations were added to the selection plates. Sm 10, Tc 10, Ap 30, Km 30, Rif 100 and Nal 50. • - Bacterial strains were incubated till 2.5 x 10^8 cells/ml of nutrient broth exponential phase, and crossed in a donor/recipient 1:5 ratio in 2 x broth during 18 hours at 37°C. On the other hand, in the interrupted crosses, the bacteria were stirred by means of the Vortex apparatus for 1 minute after 1 h cross. • - About one hundred colonies, which could growth on the selection plates (containing the various antibiotics) were checked for the resistance spectrum by "replica plating". • - The transfer frequence was expressed as the number of resistent recipients in comparison with the number of donors in the mating mixtures, at the plating time. The inhibition rate of plasmid transfer was evaluated in tests in which, in the mating mixtures, compound I was present in 1 or 10 mcg/ml concentrations.
(§5) The activity of compound I was tested in different cross systems between E. coli x E. coli.

[12] = test system: CSH50(RP4)xZM46 (plasmid RP4, Inc P); test: Inhibition of plasmid transfer by conjugation; type: cell-based, E. coli; details: Escherichia coli
Text: as §2, §3, §4, §5

[13] = test system: CSH28F'lacproxZM46 (plasmid F'lacpro, Inc FI); test: Inhibition of plasmid transfer by conjugation; type: cell-based, E. coli; details: Escherichia coli
Text: as §2, §3, §4, §5

Klebsiella pneumoniae = test: In vitro antibacterial activity (MIC), compound I versus 1:1 combination with amoxicillin (Table 3); type: cell-based; details: 4 strains, average value, compound I alone
[14] = test system: Gram-positive and Gram-negative strains resistant to amoxicillin alone; test: MIC of amoxicillin alone against the resistant strains of Table 3; type: cell-based

Work on `CCn1cc(C(=O)NC(C(=O)NC2C(=O)N3C2SC(C)(C)C3C(=O)O)c2ccc(O)cc2)c(=O)c2ccc(C)nc21` [Compound I, D-(-)-α-[(1-ethyl-1,4-dihydro-7-methyl-4-oxo-1,8-naphthyridine-3-carboxyamido)-α-(p-hydroxyphenyl)-acetamido]penicil lanic acid] yielded an MIC (Proteus mirabilis) of 25 µg/mL (≈ 43.1 µM), an MIC (Citrob. freundii) of 100 µg/mL and an MIC (E. coli [1]) of 75 µg/mL. The MIC (Staph. aureus CH1) was 1.56 µg/mL (≈ 2.69 µM), the “stability to tryptic enzymes (trypsin, pepsin, etc.)” value [2] was “stable to tryptic enzymes” and the MIC (Staph. albus [3]) was 6.25 µg/mL. For the same molecule, the MIC (Pseudomonas aeruginosa) was 50 µg/mL, the MIC (E. coli [4]) was 25 µg/mL (≈ 43.1 µM) and the MIC (Serratia marcescens [5]) was 50 µg/mL. The MIC (Staph. aureus coag. pos.) was 3.12 µg/mL (≈ 5.38 µM), the MIC (Enterob. cloacee) was 100 µg/mL and the “stability to B-lactamases” value (B-lactamases) was “stable to B-lactamases”. The “inhibition of enzymatic activity of B-lactamases” value [6] was “completely inhibiting any enzymatic activity”, the MIC (Proteus rettgeri) was 50 µg/mL and the MIC (Serratia marcescens [7]) was 50 µg/mL (≈ 86.3 µM). For the same molecule, the MIC (Staph. albus [8]) was 6.25 µg/mL (≈ 10.8 µM), the “% inhibition” value ([9]; Conc. 50 γ/ml) was 50% and the “% inhibition” value ([9]; Conc. 75 γ/ml) was 90%. For the same molecule, the “% inhibition” value ([9]; Conc. 100 γ/ml) was 100%, the “% inhibition” value ([10]; Conc. 50 γ/ml) was 50% and the “% inhibition” value ([10]; Conc. 75 γ/ml) was 90%. The “% inhibition” value ([10]; Conc. 100 γ/ml) was 100%, the MIC (Staph. aureus) was 10.3 µg/mL and the MIC (Pseudomas aeruginosa) was 50 µg/mL (≈ 86.3 µM). The MIC (Salmonella enteriditis) was 100 µg/mL, the inhibition at 1 µg/mL [11] was 19.1% and the inhibition at 10 µg/mL [11] was 74.5%. For the same molecule, the inhibition at 1 µg/mL [12] was 36.4%, the inhibition at 10 µg/mL [12] was 66.2% and the inhibition at 1 µg/mL [13] was 40.2%. It also gave an inhibition at 10 µg/mL [13] of 69.7% and an MIC (Klebsiella pneumoniae) of 87.5 µg/mL.

For `CC1(C)S[C@@H]2[C@H](NC(=O)[C@H](N)c3ccc(O)cc3)C(=O)N2[C@H]1C(=O)O` [amoxicillin], the MIC [14] was ≥ 800 µg/mL.
